Experiments:
[1] = Stability test in liver microsomes (mouse); assay type: in vitro ADME; settings: mouse liver microsomes 0.5 mg/mL, 1 μM compound
Procedure: (§1) Both male CD-1 mouse pooled liver microsomes and male SD rat pooled liver microsomes were purchased from BioreclamationIVT Corporation, USA.
(§2) The test compound stock solution was diluted with an organic solvent (usually a mixture of acetonitrile, methanol and water with various ratios, depending on the solubility of the compound, if necessary, 1 N hydrochloric acid or 1 N sodium hydroxide would be added to facilitate solubilization) to the 0.1 mM (the final concentration of the compound in the reaction system was 1 μM) and the concentration percentage of the organic solvents in the incubation system no more than 1% (wherein the percentage of DMSO was required to be no more than 0.1%). An appropriate amount of 100 mM NADP, 500 mM G-6-P and 100 Unit/mL G-6-PDH were mixed and diluted with ultrapure water (the final system contains 1 mM NADP, 5 mM G-6-P and 1 Unit/mL G-6-PDH), pre-incubated in a 37° C. water bath for 10 minutes and then placed on ice for use as a NADPH regeneration solution. 20 mg/mL liver microsomes solution and 200 mM phosphate buffer were mixed, and diluted with ultrapure water to give a liver microsomes solution containing 2.5 mg/mL liver microsomes (the final concentration of the reaction system is 0.5 mg/mL) and 50 mM phosphate buffer. The diluted liver microsomes solution was mixed with 0.1 mM compound solution, a mixture of 100 mM EDTA, 300 mM MgCl2 solution, 200 mM phosphate buffer (the final system was 3 mM MgCl2, 1 mM EDTA and 50 mM phosphate buffer) and water in an appropriate volume was added. Finally, the NADPH regeneration solution was added, then the reaction solution was placed in a 37° C. water bath to start the reaction (the reaction time was 30 minutes), and the reaction was stopped by adding the ice-cold acetonitrile reaction stopping solution containing the internal standard. The 0-minute sample was not incubated in a 37° C. water bath, and its difference from the 30-minute sample further lies in that the ice-cold acetonitrile reaction stopping solution containing the internal standard was added first, and then the NADPH regeneration solution was added. The sample added with the reaction stopping internal standard solution was vortexed and mixed well, and then centrifuged at 4400 rpm for 10 minutes. The supernatant was taken and diluted ten times with 50% methanol for LC-MS/MS analysis.
(§3) LC-MS/MS was used to determine the concentration of the compound in the sample. The percentage of the remaining compound after 30 minutes of incubation comparing with that in the 0-minute sample was calculated using the peak area ratio of the compound to the internal standard as an indicator, to evaluate the metabolic stability of the compound.

[2] = biological target: BTK recombinant protein (Homo sapiens (Human), UniProt Q06187); experiment: Determination of biochemical BTK (Z'-LYTE kinase assay); settings: 32 μM ATP
Sequence of BTK recombinant protein (Q06187 whole entry): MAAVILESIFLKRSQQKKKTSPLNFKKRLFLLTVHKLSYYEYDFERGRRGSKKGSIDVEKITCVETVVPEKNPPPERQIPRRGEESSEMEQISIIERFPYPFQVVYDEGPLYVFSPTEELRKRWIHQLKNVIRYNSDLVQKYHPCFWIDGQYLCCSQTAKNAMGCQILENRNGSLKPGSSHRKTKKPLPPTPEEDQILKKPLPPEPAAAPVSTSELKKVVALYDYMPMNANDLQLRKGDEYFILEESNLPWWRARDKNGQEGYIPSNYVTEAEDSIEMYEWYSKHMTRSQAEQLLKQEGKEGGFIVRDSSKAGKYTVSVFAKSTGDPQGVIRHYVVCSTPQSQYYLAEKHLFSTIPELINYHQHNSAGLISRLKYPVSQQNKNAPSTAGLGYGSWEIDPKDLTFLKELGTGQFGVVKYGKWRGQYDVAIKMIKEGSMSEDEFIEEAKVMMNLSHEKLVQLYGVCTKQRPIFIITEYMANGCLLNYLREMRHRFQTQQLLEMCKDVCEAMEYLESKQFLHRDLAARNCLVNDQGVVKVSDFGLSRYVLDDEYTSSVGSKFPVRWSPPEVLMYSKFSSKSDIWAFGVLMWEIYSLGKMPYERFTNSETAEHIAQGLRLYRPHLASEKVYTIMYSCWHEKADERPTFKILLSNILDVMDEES
Source text: BTK recombinant protein: Invitrogen, Cat #PV3363;
Z′-LYTE® kinase test kit-tyrosine 1 peptide: Invitrogen, Cat #PV3190;
Z′-LYTE® biochemical assay employs a fluorescence resonance energy transfer (FRET)-based, coupled-enzyme format and is based on the differential sensitivity of phosphorylated and non-phosphorylated peptides to proteolytic cleavage. Both ends of the short peptide substrate are labeled with two fluorescent groups to form a FRET paired combination. In the primary reaction (the Kinase Reaction), the kinase transfers the γ-phosphate of ATP to a single […] residue on the short peptide substrate. In the secondary reaction (the development reaction), the non-phosphorylated short peptides were recognized and cleaved by a site-specific protease (the development reagent). Phosphorylated short peptides can resist such cleavage. Cleavage of short peptides can disrupt the donor (such as coumarin) and receptor fluorophores (fluorescein) on the short peptides, while the phosphorylated short peptides can maintain FRET. The calculation method of the ratio is as follows, and the ratio of the respective emission signals generated by the donor fluorophores emitted (after excitation at 400 nm) to the receptors is calculated. Emission signal ratio=emitted light by coumarin (445 nm)/emitted light by fluorescein (520 nm). If the FRET short peptide is phosphorylated (such as no kinase inhibitor), the emitted light ratio will remain in a lower level. If the FRET short peptide is non-phosphorylated (such as kinase inhibitor), the emitted light ratio will be in a higher level. In this way, the inhibitory effects of different compound inhibitors on BTK kinase activity would be distinguished.
The experiment was carried out according to the instructions of the Z′-LYTE® kinase test kit-tyrosine 1 peptide. Reagent preparation: 1.33× kinase buffer: 5× kinase buffer was diluted with water to 1.33× kinase buffer; an enzyme solution: the kinase was dissolved in 1.33× kinase buffer with the final working concentration being 3.32 nM; a short peptide solution: a short peptide stock solution (1 mM dissolved in DMSO) was dissolved in 1.33× kinase buffer with the final working concentration being 2 μM; Z′-LYTE Tyr01 phosphorylated short peptide solution, 0.6 μl of stock solution (1 mM dissolved in DMSO) was dissolved in 149.4 μl of 1.33× kinase buffer; an ATP solution: an ATP stock solution (10 mM aqueous solution) was dissolved in 1.33× kinase buffer with the final working concentration being 32 μM; a color-developing solution: color-developing solution B was dissolved in color-developing buffer with the final working concentration being 1× color-developing solution; 4× compound preparation: the compound was diluted in 3-fold gradient concentration to finally obtain 4% DMSO aqueous solution containing different concentrations of the compound, with the final working concentration being 3000, 1000, 333.33, 111.11, 37.04, 12.35, 4.12, 1.37 nM, 8 concentration points in total.
Specific steps of the experiment: In the experiment, there were three control groups, each with 8 replicate wells, which were C1 100% inhibition group (no ATP), C2 0% inhibition group (with ATP), and C3 100% phosphorylation group, respectively. 2.5 μl of serially diluted compound was added to each well of a 384-well plate, with double replicate wells, and 4% DMSO solution was added to wells C1, C2, and C3. After that, except for wells C3, 2.5 μl of BTK enzyme solution was added to each remaining well, which was left to stand at 4° C. for 30 minutes. After that, except for wells C3, 2.5 μl of short peptide solution was added to each well, and 5 μl of phosphorylated short peptide solution was added to each of wells C3. 2.5 μl of 1.33× kinase buffer was added to each of wells C1 and C3, and 2.5 μl of ATP solution was added to each of the remaining wells. The wells were centrifuged transiently, and the plate was shaken at 1000 rpm for 30 seconds to perform transient centrifuge. […]

[3] = Stability test in liver microsomes (rat); assay type: in vitro ADME; settings: rat liver microsomes 0.5 mg/mL, 1 μM compound
Procedure: as §1, §2, §3

[4] = test system: anti-IgD antibody-induced B cell activation in mice whole blood; experiment: In vivo efficacy of the inhibitory effect on BTK target: anti-IgD antibody-induced B cell activation in mice whole blood after oral dosing; design: species or system mouse; settings: 20 mg/kg oral single dose, 16 h
Procedure: Objects: B cells in mice whole blood were induced and activated by the anti-IgD antibody, and the inhibitory effect of the compound of the present invention on B cell activation in vivo was studied, so as to determine the inhibitory effect of the compound of the present invention on the BTK target in vivo.
Methods: C57BL/6 mice (female, 18-20 g, purchased from Shanghai Lingchang Biotechnology Co., Ltd.) were grouped according to Table 1.
The animals of each group were administered, then were placed in CO2 for anesthesia at designated time points, blood samples were taken from […] via retro-orbital bleeding, and heparin was used for anticoagulation; 90 μL of whole blood was taken from mice of each group, and added to a 96 well culture plate, and anti-mouse IgD antibody (BIO-RAD, Cat #MCA4693) was added to each well to a final concentration of […] (respectively for each drug-treated group and anti-IgD antibody-inducted vehicle group); in addition, 90 μL of whole blood of mice in the vehicle group was taken and added to the 96-well culture plate, and PBS (phosphate buffer, GIBCO, Cat #C20012500BT) was added to each well to a final concentration of 0.01 μg/L (namely, the vehicle control group); Each group was mixed well and incubated in a 37° C./5% CO2 incubator for 4 hours. In addition, the blood of mice in the drug-treated group was centrifuged to separate plasma for blood concentration analysis.
B cell activation ratio=percentage of CD69^+CD19^+ double positive B cells/percentage of CD19^+ single positive B cells
Inhibition ratio=(percentage of B cell activation ratio in anti-IgD antibody-induced vehicle group−percentage of B cell activation ratio in drug-treated group)/(percentage of B cell activation ratio in anti-IgD antibody−induced vehicle group-percentage of B cell activation ratio in vehicle control group)×100%
All data are represented by mean±standard error. For the comparison between each drug-treated group and the anti-IgD antibody-induced vehicle group, p value was calculated by Graphpad Prism using one-way ANOVA analysis of variance and Dunnett's test, and for the comparison between each drug-treated group, p value was calculated by using unpaired t test.

[5] = test system: rat arthritis model induced by type II collagen; experiment: Rat arthritis model induced by type II collagen (CIA), paw volume; assay type: in vivo; settings: for inhibition ratio of area under the curve (IRAUC) of paw swelling: Day 13 to Day 19
Procedure: An appropriate amount of bovine type II collagen (CII, Chondrex (Redmond, WA, USA), Cat #20021) was weighed and dissolved in 0.1 mole of acetic acid (SPGC Sinopharm Chemical Reagent Co., Ltd (Shanghai, P.R. China), Cat #: 10000218.), which was formulated into a solution with a concentration of 6 mg/mL, stirred at 4° C. overnight, and added with an equal volume of Freund's incomplete adjuvant (Sigma-Aldrich. (St. Louis, MO, USA), Cat #: SLBW0366.), fully emulsified to prepare an emulsion with a CII concentration of 3 mg/mL.
Female Lewis rats were purchased from Beijing Vital River Laboratory Animal Technology Co., Ltd. (certificate number 20200928Aazz0619000579, initial body weight of 110-130 grams), and 6 rats were randomly selected as a normal group; and all of the remaining rats were immunized. In the first immunization on day 0, the rats except those in the normal group were anesthetized with isoflurane (Hebei Yipin Pharmaceutical Co., Ltd., Lot: C002170601.), and then disinfected with 75% alcohol, and 0.2 mL of emulsion was injected intradermally at the base of the tail thereof. A second challenge was carried out on day 7, and 0.2 mL of emulsion was intradermally injected using the same method. Once the animals developed symptoms on day 10, the incidence conditions thereof were closely monitored.
After grouping, the normal group was not administered, and the rats in the other groups were administered with the control vehicle, 0.25 mg/kg and 4 mg/kg of the reference GDC-0853, and each dose of compound 1 orally once a day until the end of the experiment.
The paw volume was measured on day 10 after immunization, and the left and right hind paw volumes (V) were measured every day after the paw volume increase was detected.
The arthrosis paw volumes of the left and right hind limbs of each animal were measured, and the average paw volume (APV) was calculated according to the following formula:
Average paw volume APV=(Vleft+Vright)/2
The average arthrosis paw volume of each animal before administration was used as the baseline (or considered […] of inflammation). The averaged paw swelling (APS) of each animal is calculated according to the following formula, wherein, APVd1 is the average paw volume of the animal administered on day 1, and APVdt is the average paw volume of the animal administered on day t:
The averaged paw swelling APSdt=(APVdt−APVd1)
The area under the curve (AUC) of the average paw volume swelling is the area under the curve of the arthrosis score swelling calculated by the trapezoid method, and the calculation formula is:
AUCAPS=½×(APSd1+APSd2)×(d2−d1)+½×(APSd2+APSd3)×(d3−d2)+ . . . +½×(APSdn+APSd(n-1))×(dn−dn-1).
Inhibition ratio IRAUC%=(Mean AUCAPS in the model group−AUCAPS in the drug-treated group)/(Mean AUCAPS in the model group−Mean AUCAPS in the normal group)×100%.

SMILES	MLM, percentage of the remaining compound after 30 minutes of incubation [1] [%]	IC50 [2] [nM]	RLM, percentage of the remaining compound after 30 minutes of incubation [3] [%]	Inhibition ratio (%) on B cell activation [4] [%]	B cell activation ratio (the population of activated B cells in total B cells) ([4]; mean ± standard error)	effect on paw volume compared with vehicle control group ([5]; 0.25 mg/kg oral QD)	inhibition ratio of area under the curve (IRAUC) of paw swelling ([5]; 0.25 mg/kg oral QD) [%]	effect on paw volume compared with vehicle control group ([5]; 4 mg/kg oral QD)	inhibition ratio of area under the curve (IRAUC) of paw swelling ([5]; 4 mg/kg oral QD) [%]
C[C@H]1CN(C2COC2)C[C@H](C)N1c1ccc(Nc2cc(-c3ccnc(-n4ncn5c6c(cc5c4=O)CC(C)(C)C6)c3CO)cn(C)c2=O)nc1 [Compound 4, 2-(5-((5-((2S,6S)-2,6-dimethyl-4-(oxetan-3-yl)piperazin-1-yl)pyridin-2-yl)amino)-3′-(hydroxymethyl)-1-methyl-6-oxo-1,6-dihydro-[3,4′-bipyridin]-2′-yl)-7,7-dimethyl-7,8-dihydro-2H-cyclopenta[4,5]pyrrolo[1,2-d][1,2,4]triazin-1(6H)-one]	90.9	5	97.4	–	–	–	–	–	–
C[C@H]1CNC[C@H](C)N1c1ccc(Nc2cc(-c3ccnc(-n4ccn5c6c(cc5c4=O)CC(C)(C)C6)c3CO)cn(C)c2=O)nc1 [Compound 5, 2-(5-((5-((2S,6S)-2,6-dimethylpiperazin-1-yl)pyridin-2-yl)amino)-3′-(hydroxymethyl)-1-methyl-6-oxo-1,6-dihydro-[3,4′-bipyridin]-2′-yl)-7,7-dimethyl-7,8-dihydro-2H-cyclopenta[4,5]pyrrolo[1,2-a]pyrazin-1(6H)-one]	67.5	8	95.4	–	–	–	–	–	–
C[C@H]1CN(C2COC2)CCN1c1ccc(Nc2cc(-c3ccnc(N4CCn5c(cc6c5CC(C)(C)C6)C4=O)c3CO)cn(C)c2=O)nc1 [GDC-0853, fenebrutinib, reference compound]	76.3	–	81.0	9	29.3 ± 6.7	no improvement effect	−6.4	significantly reduced	144.7
